Assay [1] concerns the target T1, Human PARP-1 enzyme (Homo sapiens, UniProt P09874).
T1 construct: purchased Trevigen
Briefly: In vitro Scintillation Proximity Assay (SPA) for PARP-1 inhibitory activity. As to conditions: for IC50: read-out: in vitro SPA assay PARP-1 pIC50 (converted). It is filed as biochemical. In outline:
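SPA assay: nicked-DNA-activated PARP-1 (0.1–0.2 μg/ml) ADP-ribosylates biotinylated histones (2 μg/ml) using [3H]-NAD+, 20 min at RT in Tris pH 8/DTT/MgCl2, stopped with 2 mM NAD+. Blank-subtracted cpm expressed as % control; IC50 by linear interpolation, reported as pIC50 (10−5 to 3×10−9 M tested).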

Assay [2] deals with PC-3 cells. Briefly: Antiproliferative activity, Alamar Blue assay, PC-3 cells. In kind it is cell-based, human. As to conditions: for IC50: Homo sapiens, PC-3, PC3 cells, read-out: PC3 antiproliferative activity pIC50 (converted). The method, then:
Human prostate cancer PC-3 cells obtained from the ATCC were cultured in HAM′S F12 medium supplemented with 1 mM Sodium Pyruvate, 1.5 g/L Sodium Bicarbonate, 50 μg/ml gentamicin, non-essential amino acids and 10% fetal calf serum.
Resazurin was purchased from Aldrich (Prod. No. 199303). Potassium ferrocyanide, potassium ferricyanide, KH2PO4 and K2HPO4 were purchased from Sigma (Prod. Nos. P9387, P8131, P5655 and P8281, respectively).
Potassium Phosphate Buffer 0.1 M (PPB) was made as follows: 2.72 gram KH2PO4 and 13.86 gram K2HPO4 were dissolved in 500 ml milli-Q H2O, the pH was adjusted to pH 7.4 and the volume was brought to 1 litre with milli-Q H2O; the buffer was filter sterilised and stored at room temperature. Resazurin stock solution (PPB-A) was prepared fresh by dissolving 45 mg resazurin in 15 ml PBS. 30 mM potassium ferricyanide (PPB-B) was prepared by dissolving 0.987 gram potassium ferricyanide in 100 ml PPB. 30 mM potassium ferrocyanide (PPB-C) was prepared by dissolving 1.266 gram potassium ferrocyanide in 100 ml PPB.
Mixture of PPB-A, PPB-B and PPB-C was prepared by mixing equal volumes of the respective solutions. Resazurin work solution (herein termed “Alamar Blue” solution) was prepared by diluting said mixture 20×(vol/vol) in PPB and filter sterilising; the Alamar Blue solution could be kept at 4° C. for a maximum of 2 weeks.
For experiments in 384 wells plates the cells were seeded at a density of 4.5×10^3 cells/ml in Falcon 384-well culture plates (Life Technologies, Merelbeke, Belgium), black with clear bottom, in 45 μl culture medium. Cells were allowed to adhere to plastic for 24 hr. The tested compound was pre-diluted (1/50 in culture medium) and 5 μl pre-diluted compound was added to the wells. Following 4-day incubation, 10 μl of the Alamar Blue solution was added to each well and the cells were further incubated for 4 hrs (HCT116) or 24 hrs (PC-3) at 37° C. The fluorescence intensity was measured for each well on a Fluorescence plate reader (Fluorskan, Labsystems, 540 nm excitation and 590 nm emission)
The antiproliferative activity was calculated as percentage of remaining viable cells in treated versus control (untreated cells) conditions. Within an experiment, the result for each experimental condition is the mean of 3 replicate wells. When appropriate, the experiments were repeated to establish full concentration-response curves. When appropriate, IC50-values (concentration of the drug, needed to reduce cell growth to 50% of the control) were computed using probit analysis for graded data (Finney, D. J., Probit Analyses, 2nd Ed. Chapter 10, Graded Responses, Cambridge University Press, Cambridge 1962). Herein the effects of test compounds are expressed as pIC50 (the negative log value of the IC50-value) (see Table 2).
A general note: Alamar Blue is a resazurin reagent that responds to reducing activity.

Where only a bound is given, the exact number is not on record here.

T1 sequence (P09874 whole entry): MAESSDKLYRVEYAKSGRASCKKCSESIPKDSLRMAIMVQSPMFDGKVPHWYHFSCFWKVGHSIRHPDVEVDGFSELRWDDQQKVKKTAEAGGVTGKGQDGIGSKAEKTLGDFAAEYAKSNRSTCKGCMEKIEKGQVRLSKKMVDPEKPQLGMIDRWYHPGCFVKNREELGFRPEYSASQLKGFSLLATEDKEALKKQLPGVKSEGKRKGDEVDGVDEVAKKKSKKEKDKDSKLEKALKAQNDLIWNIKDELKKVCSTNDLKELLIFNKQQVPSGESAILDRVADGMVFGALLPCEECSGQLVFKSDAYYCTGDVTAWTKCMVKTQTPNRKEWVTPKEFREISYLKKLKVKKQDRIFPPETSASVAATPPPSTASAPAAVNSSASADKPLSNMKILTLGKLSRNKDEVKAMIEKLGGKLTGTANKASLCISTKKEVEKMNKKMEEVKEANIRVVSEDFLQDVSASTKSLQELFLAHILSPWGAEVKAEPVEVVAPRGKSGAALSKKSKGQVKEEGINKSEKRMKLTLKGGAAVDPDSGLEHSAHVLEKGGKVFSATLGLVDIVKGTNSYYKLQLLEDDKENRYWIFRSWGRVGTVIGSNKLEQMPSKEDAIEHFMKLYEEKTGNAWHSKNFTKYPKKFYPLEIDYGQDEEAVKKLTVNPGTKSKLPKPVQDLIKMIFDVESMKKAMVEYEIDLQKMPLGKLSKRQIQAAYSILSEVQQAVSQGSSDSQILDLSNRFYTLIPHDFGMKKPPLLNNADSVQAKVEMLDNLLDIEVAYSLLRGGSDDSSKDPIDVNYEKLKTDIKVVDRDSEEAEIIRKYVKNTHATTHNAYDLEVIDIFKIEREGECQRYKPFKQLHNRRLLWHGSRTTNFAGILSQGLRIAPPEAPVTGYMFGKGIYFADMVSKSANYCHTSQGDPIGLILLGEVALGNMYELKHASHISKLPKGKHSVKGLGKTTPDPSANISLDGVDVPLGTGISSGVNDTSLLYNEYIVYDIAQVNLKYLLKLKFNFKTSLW

On to `C#Cc1cccc(CC(C)(C#N)c2ccc3cc(CC)c(=O)[nH]c3c2)c1` (racemic) [Compound 168], for which the IC50 in assay [1] is 631 nM; in assay [2], 158 nM.
Consider `CCc1cc2ccc(C(C)(C#N)CC3COc4ccccc4O3)cc2[nH]c1=O` (single isomer, unassigned) [Compound 48], for which the “in vitro SPA assay PARP-1 pIC50” value in assay [1] was found to be 6.4. For the same compound, in assay [2] (PC3 cells), the “PC3 antiproliferative activity pIC50” value stood at 5.4.
For `CCc1cc2ccc([C@@](C)(C#N)CCOc3ccccc3)cc2[nH]c1=O` (single isomer, unassigned) [Compound 150], the IC50 in assay [1] was 501 nM; in assay [2] it was 1580 nM.
The matching figures for `Cc1cc2ccc([C@@](C)(C#N)CCOc3ccccc3)cc2[nH]c1=O` (single isomer, unassigned) [Compound 164]: 1580 nM and 1000 nM.
Consider `CCc1cc2ccc(C(C)(C#N)Cc3cccc(C(=O)O)c3)cc2[nH]c1=O` (stereo not drawn) [Compound 10], for which the IC50 was 79.4 nM in assay [1] and more than 10000 nM in assay [2].
The matching figures for `CCc1cc2ccc(C(C)(C#N)Cc3cccc(-c4nc(C)no4)c3)cc2[nH]c1=O` (stereo not drawn) [Compound 11]: 631 nM and 1580 nM.
On to `CCc1cc2ccc(C(C)(C#N)Cc3cccc(C(=O)OC)c3)cc2[nH]c1=O` (stereo not drawn) [Compound 12], for which the values for the IC50 in assay [1] and in assay [2] were 501 nM and 63.1 nM, respectively.
As for `CCc1cc2ccc(C(C)(C#N)Cc3cccc(C(=O)NC)c3)cc2[nH]c1=O` (stereo not drawn) [Compound 13], the IC50 in assay [1] was 398 nM; in assay [2], 7940 nM.
The matching figures for `CCc1cc2ccc(C(C)(C#N)Cc3cccc(NS(C)(=O)=O)c3)cc2[nH]c1=O` (stereo not drawn) [Compound 14]: 398 nM and more than 10000 nM.
For the compound `CCc1cc2ccc(C(C)(C#N)Cc3cccc(N)c3)cc2[nH]c1=O` (stereo not drawn) [Compound 15], the IC50 in assay [1] was 316 nM; in assay [2], 2510 nM.
On to `CCc1cc2ccc(C(C)(C#N)Cc3cccc(NC(=O)N4CCOCC4)c3)cc2[nH]c1=O` (stereo not drawn) [Compound 16], for which the results for the IC50 in assay [1] and in assay [2] were 158 nM and more than 10000 nM, respectively.
The matching figures for `CCc1cc2ccc(C(C)(C#N)Cc3ccccc3Br)cc2[nH]c1=O` (stereo not drawn) [Compound 104]: 631 nM and 1000 nM.
Turning to `CCc1cc2ccc(C(C)(C#N)Cc3ccccc3C)cc2[nH]c1=O` (stereo not drawn) [Compound 105], the IC50 in assay [1] is 794 nM; in assay [2], 1000 nM.
On to `CCc1cc2ccc(C(C)(C#N)Cc3ccccc3F)cc2[nH]c1=O` (stereo not drawn) [Compound 106], for which the IC50 in assay [1] was 398 nM; in assay [2] it was 794 nM.
In the case of `CCc1cc2ccc(C(C)(C#N)Cc3cccc(C)c3)cc2[nH]c1=O` (stereo not drawn) [Compound 107], the IC50 in assay [1] and in assay [2] was 251 nM throughout.
On to `CCc1cc2ccc(C(C)(C#N)Cc3ccc(C(F)(F)F)cc3)cc2[nH]c1=O` (stereo not drawn) [Compound 108], for which the IC50 was 1260 nM in assay [1] and more than 10000 nM in assay [2].
In the case of `CCc1cc2ccc(C(C)(C#N)Cc3cccc(C(F)(F)F)c3)cc2[nH]c1=O` (stereo not drawn) [Compound 109], the IC50 in assay [1] is 794 nM; in assay [2] it was 631 nM.
The matching figures for `CCc1cc2ccc(C(C)(C#N)Cc3cccc(OC(F)(F)F)c3)cc2[nH]c1=O` (stereo not drawn) [Compound 110]: 794 nM and 200 nM.
On to `CCc1cc2ccc(C(C)(C#N)Cc3ccc(C#N)cc3)cc2[nH]c1=O` (stereo not drawn) [Compound 111], for which the IC50 in assay [1] is 251 nM; in assay [2], more than 10000 nM.
The matching figures for `CCc1cc2ccc(C(C)(C#N)Cc3cccc(F)c3)cc2[nH]c1=O` (stereo not drawn) [Compound 112]: 200 nM and 398 nM.
The matching figures for `CCc1cc2ccc(C(C)(C#N)Cc3cccc(OC)c3)cc2[nH]c1=O` (stereo not drawn) [Compound 113]: 251 nM and 251 nM.
In the case of `CCc1cc2ccc(C(C)(C#N)Cc3ccc(OC(F)(F)F)cc3)cc2[nH]c1=O` (stereo not drawn) [Compound 114], the values for the IC50 in assay [1] and in assay [2] were 1000 nM and 1580 nM, respectively.
For `CCc1cc2ccc(C(C)(C#N)Cc3ccc(F)cc3)cc2[nH]c1=O` (stereo not drawn) [Compound 115], the IC50 in assay [1] was 316 nM; in assay [2], 631 nM.
With `CCc1cc2ccc(C(C)(C#N)Cc3c(F)c(F)c(F)c(F)c3F)cc2[nH]c1=O` (stereo not drawn) [Compound 116], the IC50 in assay [1] is 1000 nM; in assay [2] it was 794 nM.
Consider `CCc1cc2ccc(C(C)(C#N)Cc3ccc(C)cc3)cc2[nH]c1=O` (stereo not drawn) [Compound 117], for which the results for the IC50 in assay [1] and in assay [2] were 398 nM and 2000 nM, respectively.
`CCc1cc2ccc(C(C)(C#N)Cc3ccc(Br)cc3)cc2[nH]c1=O` (stereo not drawn) [Compound 118]: the values for the IC50 in assay [1] and in assay [2] were 398 nM and 1260 nM, respectively.
Turning to `CCc1cc2ccc(C(C)(C#N)Cc3ccc(OC)cc3)cc2[nH]c1=O` (stereo not drawn) [Compound 119], the values for the IC50 in assay [1] and in assay [2] were 316 nM and 2510 nM, respectively.
Consider `CCc1cc2ccc(C(C)(C#N)Cc3cccc(F)c3F)cc2[nH]c1=O` (stereo not drawn) [Compound 120], for which the IC50 is 631 nM in assay [1] and 794 nM in assay [2].
Regarding `CCc1cc2ccc(C(C)(C#N)Cc3cccc(Cl)c3Cl)cc2[nH]c1=O` (stereo not drawn) [Compound 121], the IC50 is 1580 nM in assay [1] and 631 nM in assay [2].
Regarding `CCc1cc2ccc(C(C)(C#N)Cc3ccc4ccccc4c3)cc2[nH]c1=O` (stereo not drawn) [Compound 122], the IC50 is 1260 nM in assay [1] and 398 nM in assay [2].
With `CCc1cc2ccc(C(C)(C#N)Cc3ccc4c(c3)nnn4C)cc2[nH]c1=O` (stereo not drawn) [Compound 123], the values for the IC50 in assay [1] and in assay [2] were 158 nM and more than 10000 nM, respectively.
As to `CCc1cc2ccc(C(C)(C#N)Cc3ccc4c(c3)OCCO4)cc2[nH]c1=O` (stereo not drawn) [Compound 124], the IC50 is 501 nM in assay [1] and 2000 nM in assay [2].
Turning to `CCc1cc2ccc(C(C)(C#N)Cc3cc(C)cc(C)c3)cc2[nH]c1=O` (stereo not drawn) [Compound 125], the IC50 was 1000 nM in assay [1] and 251 nM in assay [2].
In the case of `CCc1cc2ccc(C(C)(C#N)Cc3cc(F)cc(Cl)c3)cc2[nH]c1=O` (stereo not drawn) [Compound 126], the IC50 in assay [1] was 794 nM; in assay [2], 200 nM.
`CCc1cc2ccc(C(C)(C#N)Cc3cc(F)cc(C(F)(F)F)c3)cc2[nH]c1=O` (stereo not drawn) [Compound 127]: the IC50 in assay [1] and in assay [2] was 1000 nM each time.
As for `CCc1cc2ccc(C(C)(C#N)Cc3cc(F)cc(F)c3)cc2[nH]c1=O` (stereo not drawn) [Compound 128], the results for the IC50 in assay [1] and in assay [2] were 501 nM and 200 nM, respectively.
As to `CCc1cc2ccc(C(C)(C#N)Cc3cccc(S(C)(=O)=O)c3)cc2[nH]c1=O` (stereo not drawn) [Compound 129], the IC50 was 631 nM in assay [1] and 5010 nM in assay [2].
In the case of `CCc1cc2ccc(C(C)(C#N)Cc3cccc(Cl)c3F)cc2[nH]c1=O` (stereo not drawn) [Compound 130], the results for the IC50 in assay [1] and in assay [2] were 631 nM and 398 nM, respectively.
As for `CCc1cc2ccc(C(C)(C#N)Cc3cc(C(F)(F)F)cc(C(F)(F)F)c3)cc2[nH]c1=O` (stereo not drawn) [Compound 131], the IC50 in assay [1] is 1580 nM; in assay [2], more than 10000 nM.
Turning to `CCc1cc2ccc(C(C)(C#N)Cc3cccc(C)c3F)cc2[nH]c1=O` (stereo not drawn) [Compound 132], the results for the IC50 in assay [1] and in assay [2] were 1260 nM and 631 nM, respectively.
Take `CCc1cc2ccc(C(C)(C#N)Cc3cc(Br)cc(Br)c3)cc2[nH]c1=O` (stereo not drawn) [Compound 133]: the results for the IC50 in assay [1] and in assay [2] were 794 nM and 501 nM, respectively.
`CCc1cc2ccc(C(C)(C#N)Cc3cccc(C(F)(F)F)c3F)cc2[nH]c1=O` (stereo not drawn) [Compound 134]: the IC50 was 1260 nM in assay [1] and 1000 nM in assay [2].
For `CCc1cc2ccc(C(C)(C#N)Cc3c(Cl)cccc3Cl)cc2[nH]c1=O` (stereo not drawn) [Compound 135], the IC50 in assay [1] and in assay [2] was 1000 nM in each case.
With `CCc1cc2ccc(C(C)(C#N)Cc3c(Cl)cccc3Br)cc2[nH]c1=O` (stereo not drawn) [Compound 136], the IC50 was 1580 nM in assay [1] and 1000 nM in assay [2].
Regarding `CCc1cc2ccc(C(C)(C#N)Cc3ccc(F)cc3F)cc2[nH]c1=O` (stereo not drawn) [Compound 137], the IC50 is 1260 nM in assay [1] and 794 nM in assay [2].

These data come from US8778966B2, “Quinolinone derivatives as PARP and tank inhibitors” (Janssen Pharmaceutica, NV, priority 2007, dated 2014).
